Laboratory results as given in patent US20200368310A1, “TREATMENT WITH NMDA RECEPTOR MODULATORS” (Naurex, Inc, priority 2017, published 2020).
Residues, ends and D or L forms follow the SMILES beside them.

Test system: Male rats
Test: Sleep-wake cycle analysis by telemetric EEG recording in rats
Format: in vivo, rat
Details: for percentage of active waking: FIG. 4B
Experimental: Male rats were anesthetized and surgically implanted with 2 surface electrodes in the frontoparietal cortex and 2 depth electrodes in the CA1 region of the hippocampus (AP +5.0 mm, L ±2.5 mm, V +7.0 mm). After ≥10 days recovery, telemetric transmitters were connected to electrodes for electroencephalographic (EEG) recordings. On the day of experiment, rats were injected at the beginning of the light phase with rapastinel (3, 10, or 30 mg/kg, IV), ketamine (30 mg/kg, IP), or the positive control zolpidem (12 mg/kg, PO) using a treatment schedule based on a cross-over design (n=9-10/dose/group) in which rats received zolpidem or rapastinel at session 1 and then rapastinel and/or ketamine at sessions 2-4. Physiological saline was used as the vehicle control
Sleep-wake cycles were measured continuously following rapastinel treatment for the next 23 hours and were analyzed based on a spectral power analysis. Latencies to first occurrence of SWS and REM sleep, as well as percent time spent in SWS, REM sleep, and wakefulness, were calculated for the total recording sessions (23 hours), the half cycles (0-12 and 12-23 hours), and 5 time segments (0-4, 4-8, 8-12, 12-18, and 18-23 hours). Depth of SWS (defined as the ratio between alpha and delta spectral power) was also calculated. Differences between vehicle and test drugs were calculated for all variables, for each animal, and for the means of the animals per treatment group, and analyzed using a paired t-test

## CNC1(c2ccccc2Cl)CCCCC1=O (stereo not drawn) [Ketamine, ketamine]
Ketamine 30 mg/kg IP, 0-4 hours post-dose, P<0.001
  alpha/delta ratio (depth of SWS): concomitant decrease
Ketamine 30 mg/kg IP, 0-4 hours post-dose, P<0.001, FIG. 2A
  duration of SWS: decreased
Ketamine 30 mg/kg IP, 0-4 hours post-dose, P<0.001, FIG. 3
  duration of REM sleep: decreased
Ketamine 30 mg/kg IP, 12-23 hours post-dose, P<0.01, FIG. 4A
  waking (duration): small but significant decrease
Ketamine 30 mg/kg IP, 12-23 hours post-dose, P<0.05, FIG. 3
  REM sleep (duration): compensatory increase
Ketamine 30 mg/kg IP, 12-23 hours post-dose, P<0.05
  percentage of active waking: significantly decreased
Ketamine 30 mg/kg IP, first 4 hours post-dose, P<0.001, FIG. 4A
  duration of waking: significantly increased

## C[C@@H](O)[C@H](N)C(=O)N1CCC[C@H]1C(=O)N1CCC[C@H]1C(=O)N[C@H](C(N)=O)[C@@H](C)O [Rapastinel, rapastinel] (H-TPPT-NH2)
Rapastinel 30 mg/kg IV, 8-12 hours post-dose, P<0.01
  percentage of active waking: small but significant decrease
Rapastinel 30 mg/kg IV, 18-23 hours post-dose, P<0.05
  percentage of active waking: small but significant decrease
rapastinel, all doses and periods except 8-12 and 18-23 hours at 30 mg/kg
  percentage of active waking: no effect

## Cc1ccc(-c2nc3ccc(C)cn3c2CC(=O)N(C)C)cc1 [Zolpidem, zolpidem]
Zolpidem 12 mg/kg PO, 0-12 hours post-dose, P<0.05
  percentage of active waking: significantly decreased
Zolpidem 12 mg/kg PO, 4-8 hours post-dose, P<0.05, FIG. 3
  duration of REM sleep: significantly decreased
